Some test systems named below: KM12 colon; MOLT-4 leukemia; HL-60(TB) leukemia; SK-MEL-5 melanoma; SW-620 colon; HOP-92 NSCLC; SK-MEL-28 melanoma; SF-268 CNS; SK-OV-3 ovarian; RPMI-8226 leukemia; CAKI-1 renal; IGROV1 ovarian; NCI-H226 lung; U251 CNS; OVCAR-8 ovarian; HOP-62 NSCLC; SNB-19 CNS; MALME-3M melanoma; BT-549 breast.
What all share (assay): growth of human tumour cells (NCI), 48 h

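48-hour exposure; five concentrations; linearly interpolated endpoints. TGI marks complete inhibition of growth.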

Turning to `O=C(CC(C(=O)c1ccsc1)c1ccccc1)c1ccccc1` (centres undefined), the TGI in the experiment with KM12 colon is greater than 100 µM; with MOLT-4 leukemia it was greater than 100 µM; in the experiment with HL-60(TB) leukemia, 23 µM; in the experiment on SK-MEL-5 melanoma, greater than 100 µM; with SW-620 colon it was greater than 100 µM; in the experiment on HOP-92 NSCLC, greater than 100 µM. The TGI in the experiment on SK-MEL-28 melanoma, with SF-268 CNS, with SK-OV-3 ovarian, in the experiment on RPMI-8226 leukemia, with CAKI-1 renal and with IGROV1 ovarian was greater than 100 µM in each case. The TGI with NCI-H226 lung, in the experiment on U251 CNS, in the experiment on OVCAR-8 ovarian and in the experiment on HOP-62 NSCLC was greater than 100 µM each time.

With `COc1cccc(C2c3cc4c(cc3OC(C)(N3CCCC3)C2C)OCO4)c1` (centres undefined), the TGI was 17.8 µM with KM12 colon; greater than 100 µM with MOLT-4 leukemia; greater than 100 µM in the experiment with HL-60(TB) leukemia; 14.5 µM in the experiment on SK-MEL-5 melanoma; greater than 100 µM in the experiment on SW-620 colon; 42.2 µM in the experiment with HOP-92 NSCLC. Also, the TGI with SK-MEL-28 melanoma was greater than 100 µM; in the experiment with SF-268 CNS it was greater than 100 µM; in the experiment on SK-OV-3 ovarian it was 41.5 µM; with CAKI-1 renal it was 59.8 µM; in the experiment with SNB-19 CNS, greater than 100 µM; in the experiment on MALME-3M melanoma it was 64.7 µM. For the same molecule, the TGI amounted to 37.9 µM with IGROV1 ovarian; 27.3 µM in the experiment on NCI-H226 lung; 35.8 µM in the experiment on U251 CNS; 64.1 µM in the experiment with OVCAR-8 ovarian; 20.6 µM in the experiment on HOP-62 NSCLC.

`CCOC1c2cc(C(C)C)c(O)c(O)c2[C@@]23CCCC(C)(C)C2C1OC3=O` (some centres undefined): the TGI with MOLT-4 leukemia, with HL-60(TB) leukemia, with SK-MEL-5 melanoma, in the experiment with SW-620 colon, with SK-MEL-28 melanoma and with SF-268 CNS was greater than 100 µM in each case. The TGI in the experiment with SK-OV-3 ovarian, with RPMI-8226 leukemia, in the experiment with CAKI-1 renal, in the experiment with SNB-19 CNS, in the experiment with MALME-3M melanoma and in the experiment on IGROV1 ovarian was greater than 100 µM in each case. For the same molecule, the TGI in the experiment on NCI-H226 lung, in the experiment with U251 CNS, with OVCAR-8 ovarian and with HOP-62 NSCLC was greater than 100 µM each time.

Take `CC1CN=C(N(C(=O)Nc2ccc(Cl)c(Cl)c2)c2ccccc2)S1` (centres undefined): the TGI with KM12 colon is greater than 100 µM; in the experiment with MOLT-4 leukemia, greater than 100 µM; in the experiment with SK-MEL-5 melanoma, 50.8 µM; in the experiment with SW-620 colon it was greater than 100 µM; with HOP-92 NSCLC, greater than 100 µM; with SK-MEL-28 melanoma, greater than 100 µM. Moreover, the TGI in the experiment with SF-268 CNS, in the experiment with RPMI-8226 leukemia, with CAKI-1 renal, in the experiment with SNB-19 CNS, in the experiment on MALME-3M melanoma and in the experiment with IGROV1 ovarian was greater than 100 µM in each case. In addition, the TGI with U251 CNS, with OVCAR-8 ovarian and in the experiment on HOP-62 NSCLC was greater than 100 µM throughout.

As to `Cc1nc2ccc(F)cc2c2c1CCN2c1ccc(Cl)cc1`, the TGI in the experiment on HL-60(TB) leukemia is 17.7 µM; with SK-MEL-5 melanoma it was 12.3 µM; in the experiment with SW-620 colon, 54.8 µM; with SK-MEL-28 melanoma, 28 µM; in the experiment on SF-268 CNS, greater than 100 µM; in the experiment on SK-OV-3 ovarian, greater than 100 µM. The TGI in the experiment with BT-549 breast is 67.2 µM; in the experiment with CAKI-1 renal, 79.6 µM; with SNB-19 CNS it was greater than 100 µM; in the experiment with MALME-3M melanoma, 26.9 µM; with IGROV1 ovarian, 40 µM; with NCI-H226 lung it was 72.2 µM. Further, the TGI in the experiment with U251 CNS was found to be 71.8 µM; in the experiment with OVCAR-8 ovarian, 34.2 µM; with HOP-62 NSCLC, 56.4 µM.

Take `c1ccc2c(c1)SCCC2NC1=NCCO1` (centres undefined): the TGI in the experiment with KM12 colon, in the experiment with MOLT-4 leukemia, in the experiment with HL-60(TB) leukemia, with SK-MEL-5 melanoma, in the experiment with SW-620 colon and in the experiment with SK-MEL-28 melanoma was greater than 100 µM throughout. The TGI in the experiment with SF-268 CNS, in the experiment with SK-OV-3 ovarian, with RPMI-8226 leukemia, in the experiment on CAKI-1 renal, with SNB-19 CNS and in the experiment with MALME-3M melanoma was greater than 100 µM throughout. In addition, the TGI with IGROV1 ovarian, in the experiment with NCI-H226 lung, in the experiment with U251 CNS, in the experiment with OVCAR-8 ovarian and in the experiment with HOP-62 NSCLC was greater than 100 µM each time.

Turning to `Cc1ccc(Cl)c2c(=O)c3ccc(N)cc3sc12`, the TGI was 33.4 µM with KM12 colon; 50 µM in the experiment with MOLT-4 leukemia; 20.4 µM in the experiment with HL-60(TB) leukemia; 37.7 µM in the experiment on SK-MEL-5 melanoma; greater than 100 µM with SF-268 CNS; 42.3 µM with RPMI-8226 leukemia. Further, the TGI is greater than 100 µM with BT-549 breast; greater than 100 µM in the experiment with CAKI-1 renal; greater than 100 µM in the experiment with SNB-19 CNS; 28.7 µM with IGROV1 ovarian; 48.4 µM in the experiment with NCI-H226 lung; 52.6 µM in the experiment with OVCAR-8 ovarian. The molecule also displayed a TGI in the experiment with HOP-62 NSCLC of 52.8 µM.

`COc1ccc(C(C#N)NNC(=O)Cc2ccccc2)cc1OC` (centres undefined): the TGI with KM12 colon, in the experiment on MOLT-4 leukemia, in the experiment on HL-60(TB) leukemia, in the experiment on SK-MEL-5 melanoma, in the experiment on SW-620 colon and in the experiment on HOP-92 NSCLC was greater than 100 µM each time. Also, the TGI in the experiment on SK-MEL-28 melanoma, in the experiment with SF-268 CNS, in the experiment on SK-OV-3 ovarian, with RPMI-8226 leukemia, with CAKI-1 renal and with MALME-3M melanoma was greater than 100 µM each time. Further, the TGI in the experiment with IGROV1 ovarian, in the experiment with NCI-H226 lung, in the experiment on U251 CNS, in the experiment with OVCAR-8 ovarian and in the experiment on HOP-62 NSCLC was greater than 100 µM each time.

For the molecule `Cc1cc(C(F)(F)F)cc(-n2nc(NS(=O)(=O)c3cc(C)c(Cl)cc3S)nc2N)n1`, the TGI with KM12 colon is greater than 100 µM; in the experiment on MOLT-4 leukemia, 69.5 µM; with HL-60(TB) leukemia it was 77.8 µM; in the experiment with SK-MEL-5 melanoma it was greater than 100 µM; in the experiment on SW-620 colon, greater than 100 µM; in the experiment with HOP-92 NSCLC, greater than 100 µM. Besides, the TGI in the experiment on SK-MEL-28 melanoma, with SF-268 CNS, in the experiment on SK-OV-3 ovarian, in the experiment with RPMI-8226 leukemia, with CAKI-1 renal and in the experiment with SNB-19 CNS was greater than 100 µM in each case. Moreover, the TGI with MALME-3M melanoma, in the experiment on IGROV1 ovarian, in the experiment on NCI-H226 lung, with U251 CNS, with OVCAR-8 ovarian and with HOP-62 NSCLC was greater than 100 µM in each case.

The values are drawn from PubChem BioAssay (NCI).
